# Data: patent publication US20240269139A1, “COMPOUNDS FOR TARGETED PROTEIN DEGRADATION OF KINASES” (DANA-FARBER CANCER INSTITUTE, INC., priority 2020, published 2024)
# Read-outs that look alike come from different tables or passages of the source.
# Key:
# Assay type in all cases: cell-based
# [1] = target: protein kinases (human kinome) (Homo sapiens, UniProt Q2M2I8); settings: experiment wp088
# Source text: (§1) Although development of targeted protein degraders requires a POI binder, among already-liganded proteins such as kinases, it was hypothesized that different targets would have a different propensity for current approaches to degrader-mediated destruction, which was termed ‘degradability’. […] It was rationalized that the probability of identifying the same kinase as a false positive in multiple treatments is low, therefore this analysis served to also assess the robustness of our data and subsequent interpretations. […] Overall, 62 protein kinases were degraded in more than 10 independent treatments, and remarkably, 9 of these (CDK4, AURKA, FER, WEE1, BLK. LIMK2, CDK6, GAK, LIMK1) were each degraded in at least 40 of the 154 independent treatments, emphasizing their predisposition to induced degradation (FIG. 1G; Appendix I).
# (§2) Next, the frequency of degradation assessment was corrected for over-representation of molecules in the full dataset by omitting replicate profiling of compounds under different experimental conditions, to remove any bias. […] Unsurprisingly, the top degradable kinases mirror those from the previous analysis (CDK4, AURKA, FER, WEE1, BLK), confirming that in sufficiently large datasets, even with over-representation of certain molecules, frequency of degradation is a good measure of general tractability.
# [2] = target: T1, protein kinases (human kinome) (Homo sapiens, UniProt O14976)
# T1 sequence (O14976 1-1311): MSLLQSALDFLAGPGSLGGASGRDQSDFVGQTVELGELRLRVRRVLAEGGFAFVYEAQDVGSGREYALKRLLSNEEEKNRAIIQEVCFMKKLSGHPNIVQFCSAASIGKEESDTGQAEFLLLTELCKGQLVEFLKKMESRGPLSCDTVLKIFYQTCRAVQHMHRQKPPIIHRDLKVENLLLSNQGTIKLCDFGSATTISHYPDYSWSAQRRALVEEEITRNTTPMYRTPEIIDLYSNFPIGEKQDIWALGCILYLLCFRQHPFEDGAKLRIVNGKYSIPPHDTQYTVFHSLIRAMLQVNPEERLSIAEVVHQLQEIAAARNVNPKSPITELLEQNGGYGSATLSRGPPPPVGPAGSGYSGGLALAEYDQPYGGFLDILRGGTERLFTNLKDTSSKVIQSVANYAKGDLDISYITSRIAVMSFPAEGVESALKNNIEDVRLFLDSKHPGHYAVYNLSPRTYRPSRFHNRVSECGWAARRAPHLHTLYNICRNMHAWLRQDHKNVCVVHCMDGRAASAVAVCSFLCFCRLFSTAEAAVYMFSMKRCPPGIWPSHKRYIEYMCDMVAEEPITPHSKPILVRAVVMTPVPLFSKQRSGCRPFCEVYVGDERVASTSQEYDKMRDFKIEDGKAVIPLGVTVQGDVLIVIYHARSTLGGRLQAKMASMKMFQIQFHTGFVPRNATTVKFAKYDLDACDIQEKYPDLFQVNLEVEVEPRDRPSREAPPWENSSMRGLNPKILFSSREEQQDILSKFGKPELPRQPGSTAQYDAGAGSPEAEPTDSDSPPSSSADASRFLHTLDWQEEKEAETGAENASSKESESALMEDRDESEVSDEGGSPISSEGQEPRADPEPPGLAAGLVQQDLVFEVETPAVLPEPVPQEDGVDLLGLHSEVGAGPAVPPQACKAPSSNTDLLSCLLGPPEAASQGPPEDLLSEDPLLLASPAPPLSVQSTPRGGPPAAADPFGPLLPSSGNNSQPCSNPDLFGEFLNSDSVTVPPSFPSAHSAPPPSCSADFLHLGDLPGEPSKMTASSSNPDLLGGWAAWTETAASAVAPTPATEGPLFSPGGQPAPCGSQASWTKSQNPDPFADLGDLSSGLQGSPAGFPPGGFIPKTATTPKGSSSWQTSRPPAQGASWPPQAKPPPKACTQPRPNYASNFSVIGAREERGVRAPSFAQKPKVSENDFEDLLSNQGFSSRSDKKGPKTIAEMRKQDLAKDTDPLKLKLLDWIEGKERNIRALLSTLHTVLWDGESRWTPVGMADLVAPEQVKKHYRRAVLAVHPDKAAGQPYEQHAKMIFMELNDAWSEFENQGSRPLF
# Source text: as §1, §2
# [3] = target: protein kinases (human kinome) (Homo sapiens, UniProt P30291); settings: WEE1 P30291-1; experiment wp076; degrader vs DMSO
# Source text: as §1, §2
# [4] = target: protein kinases (human kinome) (Homo sapiens, UniProt P16591)
# Source text: as §1, §2
# [5] = tested on: protein kinases (human kinome); settings: for kinases the bifunctional compound degrades: as stated for the structure in the embodiments; for Kinase hits: kinases significantly downregulated vs DMSO (fold change cutoff −1.25, P-value<0.01), ≤8 h, 0.1-5 μM degrader, 7 cell lines; for Total no. kinase hits: number of degraded kinases per library compound
# Source text: as §1, §2
# Sequence of protein kinases (human kinome) (Homo sapiens, UniProt Q2M2I8) (Q2M2I8 whole entry): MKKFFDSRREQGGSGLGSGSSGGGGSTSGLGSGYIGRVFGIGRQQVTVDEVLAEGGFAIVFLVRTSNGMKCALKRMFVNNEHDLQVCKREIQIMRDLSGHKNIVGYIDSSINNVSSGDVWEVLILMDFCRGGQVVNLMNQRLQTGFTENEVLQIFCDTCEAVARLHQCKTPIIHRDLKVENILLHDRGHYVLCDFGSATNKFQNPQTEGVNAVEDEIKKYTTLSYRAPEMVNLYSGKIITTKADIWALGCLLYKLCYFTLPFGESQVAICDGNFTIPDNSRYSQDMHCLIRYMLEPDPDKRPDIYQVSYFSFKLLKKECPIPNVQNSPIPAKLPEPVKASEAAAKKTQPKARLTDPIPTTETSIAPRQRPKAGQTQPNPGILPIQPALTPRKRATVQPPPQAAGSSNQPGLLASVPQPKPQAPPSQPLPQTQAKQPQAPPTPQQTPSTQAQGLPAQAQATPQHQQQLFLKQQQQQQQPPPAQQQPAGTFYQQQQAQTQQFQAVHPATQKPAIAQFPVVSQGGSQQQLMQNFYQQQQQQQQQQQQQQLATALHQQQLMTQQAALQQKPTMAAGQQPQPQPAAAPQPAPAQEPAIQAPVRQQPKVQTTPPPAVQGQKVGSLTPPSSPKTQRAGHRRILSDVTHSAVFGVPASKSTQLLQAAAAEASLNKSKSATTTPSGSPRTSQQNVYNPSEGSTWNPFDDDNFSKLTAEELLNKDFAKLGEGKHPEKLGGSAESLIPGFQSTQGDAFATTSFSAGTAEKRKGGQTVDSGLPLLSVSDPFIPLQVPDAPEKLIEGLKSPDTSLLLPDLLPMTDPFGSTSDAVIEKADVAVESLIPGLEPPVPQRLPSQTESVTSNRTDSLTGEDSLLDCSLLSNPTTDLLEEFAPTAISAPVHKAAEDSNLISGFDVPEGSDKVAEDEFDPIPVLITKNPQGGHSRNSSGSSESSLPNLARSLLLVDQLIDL
# Sequence of protein kinases (human kinome) (Homo sapiens, UniProt P16591) (P16591 whole entry): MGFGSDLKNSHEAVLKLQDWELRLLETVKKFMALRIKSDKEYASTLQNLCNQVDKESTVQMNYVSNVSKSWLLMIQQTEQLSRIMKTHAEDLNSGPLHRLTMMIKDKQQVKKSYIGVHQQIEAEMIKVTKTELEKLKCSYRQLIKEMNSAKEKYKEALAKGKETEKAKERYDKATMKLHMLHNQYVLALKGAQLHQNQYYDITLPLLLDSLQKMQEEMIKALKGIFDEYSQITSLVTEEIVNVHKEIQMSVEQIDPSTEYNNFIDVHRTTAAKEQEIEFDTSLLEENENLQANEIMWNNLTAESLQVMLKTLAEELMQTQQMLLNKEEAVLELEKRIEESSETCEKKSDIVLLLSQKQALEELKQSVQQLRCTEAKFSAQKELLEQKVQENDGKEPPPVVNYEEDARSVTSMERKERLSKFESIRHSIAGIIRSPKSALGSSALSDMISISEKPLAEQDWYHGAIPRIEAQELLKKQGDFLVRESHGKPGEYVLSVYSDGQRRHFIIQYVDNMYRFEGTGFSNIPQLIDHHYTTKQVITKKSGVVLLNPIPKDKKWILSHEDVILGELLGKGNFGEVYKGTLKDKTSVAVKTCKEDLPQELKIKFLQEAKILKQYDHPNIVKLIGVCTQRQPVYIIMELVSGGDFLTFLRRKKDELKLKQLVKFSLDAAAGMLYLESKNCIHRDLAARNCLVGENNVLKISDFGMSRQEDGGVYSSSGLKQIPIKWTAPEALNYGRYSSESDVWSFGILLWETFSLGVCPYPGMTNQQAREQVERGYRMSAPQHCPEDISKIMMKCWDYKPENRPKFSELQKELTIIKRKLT
# Sequence of protein kinases (human kinome) (Homo sapiens, UniProt P30291) (P30291 whole entry): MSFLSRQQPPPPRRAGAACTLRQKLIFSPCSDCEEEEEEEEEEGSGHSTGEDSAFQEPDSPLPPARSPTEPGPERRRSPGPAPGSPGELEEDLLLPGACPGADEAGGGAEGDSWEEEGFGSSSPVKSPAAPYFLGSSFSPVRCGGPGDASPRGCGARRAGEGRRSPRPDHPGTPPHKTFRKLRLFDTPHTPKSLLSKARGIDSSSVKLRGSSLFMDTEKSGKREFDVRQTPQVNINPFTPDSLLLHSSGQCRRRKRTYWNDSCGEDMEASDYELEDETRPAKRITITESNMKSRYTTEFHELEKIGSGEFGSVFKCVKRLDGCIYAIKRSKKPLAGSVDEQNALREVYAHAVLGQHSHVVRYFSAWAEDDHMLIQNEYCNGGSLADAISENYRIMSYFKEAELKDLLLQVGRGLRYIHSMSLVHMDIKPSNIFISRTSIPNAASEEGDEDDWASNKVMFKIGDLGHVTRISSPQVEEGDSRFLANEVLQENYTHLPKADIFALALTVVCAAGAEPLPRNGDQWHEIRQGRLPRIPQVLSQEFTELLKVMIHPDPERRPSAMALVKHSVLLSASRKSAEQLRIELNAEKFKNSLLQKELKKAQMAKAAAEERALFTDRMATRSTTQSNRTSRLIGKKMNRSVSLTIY
SMILES,Kinase hits [5],Total no. kinase hits [5],further results
Cc1cnc(Nc2ccc(N3CCN(CCOCCOCCC(=O)N[C@H](C(=O)N4C[C@H](O)C[C@H]4C(=O)N[C@@H](C)c4ccc(-c5scnc5C)cc4)C(C)(C)C)CC3)cc2)nc1Nc1cccc(S(=O)(=O)NC(C)(C)C)c1 [JWG.122],,,"logFC AAK1 ([1]; AAK1 (Q2M218-1), down): −0.6335; logFC AAK1 ([1]; AAK1, accession Q2M218-1, direction of change down): −0.6335; logFC of GAK (O14976) ([2]; Experiment wp088, down): −0.3586; logFC GAK ([2]; GAK (O14976), direction down, experiment wp088): −0.3586"
CNC(=O)c1ccccc1Nc1cc(Nc2ccc(N3CCN(CCOCCOCCNC(=O)CNc4cccc5c4C(=O)N(C4CCC(=O)NC4=O)C5=O)CC3)cc2OC)ncc1C(F)(F)F (centres unmarked) [MFH.S.103.1],,,logFC of WEE1 [3]: −0.9694
Cc1cc(Nc2ncc(Cl)c(Nc3ccccc3S(=O)(=O)C(C)C)n2)c(OC(C)C)cc1C1CCN(CCOCCOCCNC(=O)CNc2cccc3c2C(=O)N(C2CCC(=O)NC2=O)C3=O)CC1 (centres unmarked) [TI13.112],,,"logFC of FER ([4]; FER P16591-1, experiment wp012): −0.5247; logFC PTK2 ([5]; Accession Q05397-5, experiment wp012, direction down): −0.6217; logFC RPS6KA1 (Q15418-2) ([5]; RPS6KA1 protein abundance, degrader vs DMSO, experiment wp012): −0.7875"
"CC(C)S(=O)(=O)c1ccccc1Nc1nc(Nc2ccc(N3CCN(CCOCCOCCC(=O)NCCNc4cccc5c4CN(C4CCC(=O)NC4=O)C5=O)CC3)cc2)ncc1Cl (centres unmarked) [TL13-97, 3-(2-(2-(4-(4-((5-chloro-4-((2-(isopropylsulfonyl)phenyl)amino)pyrimidin-2-yl)amino)phenyl)piperazin-1-yl)ethoxy)ethoxy)-N-(2-((2-(2,6-dioxopiperidin-3-yl)-1-1722 oxoisoindolin-4-yl)amino)ethyl)propenamide]","AAK1, ABL2, AURKA, AURKB, BLK, BUB1B, CDK13, CDK17, CDK2, CDK4, CDK5, CDK6, CDK7, CDK9, FER, ITK, LCK, LIMK1, LIMK2, MAP3K11, MARK4, PLK4, PRKAA1, RPS6KA1, SRC, STK10, STK38, TEC, TNK2, ULK1, ULK3, WEE1",32,"kinases the bifunctional compound degrades [5]: AAK1, ABL2, AURKA, AURKB, BLK, BUB1B, CDK13, CDK17, CDK2, CDK4, CDK5. CDK6. CDK7. CDK9. FER, ITK, LCK, LIMK1, LIMK2, MAP3K11, MARK4, PLK4, PRKAA1, RPS6KA1, SRC. STK10, STK38, TEC, TNK2, ULK1, ULK3, and WEE1"
Cc1cc(Nc2ncc(Cl)c(Nc3ccccc3S(=O)(=O)C(C)C)n2)c(OC(C)C)cc1C1CCN(CCOCCOCCNC(=O)CNc2cccc3c2C(=O)N(C2CCC(=O)NC2=O)C3=O)CC1 (centres unmarked) [TL13-112],"FER, PTK2, RPS6KA1",3,
Cc1ccc(C(=O)Nc2ccc(CN3CCN(CCOCCOCCNC(=O)CNc4cccc5c4C(=O)N(C4CCC(=O)NC4=O)C5=O)CC3)c(C(F)(F)F)c2)cc1C#Cc1cnc2cccnn12 (centres unmarked) [TL13-150],"BLK, CDK5, FER, GAK, IRAK1, LCK, MAP4K2, MAPK14, RIPK1, SRC",10,
CC(C)(C)c1cc(NC(=O)Nc2ccc(Oc3ccnc(C(=O)NCCOCCOCCNC(=O)CNc4cccc5c4C(=O)N(C4CCC(=O)NC4=O)C5=O)c3)cc2F)n(-c2ccc3ncccc3c2)n1 (centres unmarked) [TL13-178],,,"kinases the bifunctional compound degrades [5]: CDK4, LIMK1, MAP3K20, MAPK14, and MAST3"
Cc1cc(Nc2ncc(Cl)c(Nc3ccccc3S(=O)(=O)C(C)C)n2)c(OC(C)C)cc1C1CCN(CCOCCOCCNC(=O)CNc2cccc3c2C(=O)N(C2CCC(=O)NC2=O)C3=O)CC1 (centres unmarked) [TL13.112],,,"logFC of FER (P16591-1) ([4]; Experiment wp012, down): −0.5247; logFC PTK2 (Q05397-5) ([5]; Experiment wp012, direction of change down): −0.6217; logFC RPS6KA1 ([5]; RPS6KA1 (Q15418-2), experiment wp012): −0.7875"
NC(=O)c1c(F)cccc1Nc1nc(NC2CCN(S(=O)(=O)CCNC(=O)CCCCCCCCOc3cccc4c3C(=O)N(C3CCC(=O)NC3=O)C4=O)CC2)ncc1Br (centres unmarked) [TMX-01-160-1],"AURKA, CDK1, CDK12, CDK16, CDK17, CDK2, CDK4, CDK5, CDK6, CDK7, CDK9, MAPK10, MAPK8, MAPK9, RPS6KA1",15,
NC(=O)c1c(F)cccc1Nc1nc(Nc2ccc(S(=O)(=O)NCCOCCOCCOCCOCCNc3cccc4c3C(=O)N(C3CCC(=O)NC3=O)C4=O)cc2)ncc1Br (centres unmarked) [TMX-02-138],"AAKI, AURKA, AURKB, CDK1, CDK12, CDK16, CDK17, CDK2, CDK5, CDK7, CDK9, CLK1, FER, GSK3A, GSK3B, IRAK3, MAPSK11, MAPK8, MAPK9, NUAK1, PRKAA1, PRKAA2, PTK2B, RPS6KA1, RPS6KA3, STK33, STK38, TTK",28,
Cc1cc(S(=O)(=O)NCCOCCOCCOCCOCCNc2cccc3c2C(=O)N(C2CCC(=O)NC2=O)C3=O)ccc1Nc1ncc(Br)c(Nc2cccc(F)c2C(N)=O)n1 (centres unmarked) [TMX-02-172],"AURKA, AURKB, CDK1, CDK2, CDK5, MAPK8, MAPK9, PTK2, RPS6KA1, RPS6KA3, STK33, TTK",12,
Cc1cc(Nc2ncc(Br)c(Nc3cccc(F)c3C(N)=O)n2)ccc1S(=O)(=O)NCCOCCOCCOCCOCCNc1cccc2c1C(=O)N(C1CCC(=O)NC1=O)C2=O (centres unmarked) [TMX-02-174],"AAK1, AURKA, AURKB, CDK1, CDK12, CDK16, CDK17, CDK2, CDK5, CDK7, CDK9, CLK1, FER, GSK3A, GSK3B, IRAK3, MAP3K11, MAPK8, MAPK9, NEK1, NEK3, NEK4, NEK9, NUAK1, PRKAA1, PRKAA2, PTK2, PTK2B, RPS6KA1, RPS6KA3, RPS6KA4, STK33, STK35, STK38, TBK1, TEC, TTK, WEE1",37,
"Nc1ncc(-c2ccc(S(=O)(=O)N(CCCNC(=O)CCOCCOCCOCCOCCOCCNc3cccc4c3C(=O)N(C3CCC(=O)NC3=O)C4=O)C3CC3)cc2F)cc1-c1ccc2c(c1)CCNC2=O (centres unmarked) [WH-9533-153, N-(3-((4-(6-amino-5-(1-oxo-1,2,3,4-tetrahydroisoquinolin-6-yl)pyridin-3-yl)-N-cyclopropyl-3-fluorophenyl)sulfonamido)propyl)-1-((2-(2,6-dioxopiperidin-3-yl)-1,3-dioxoisoindolin-4-yl)amino)-3,6,9,12,15-pentaoxaoctadecan-18-amide]","CDK14, CSNK1D, GSK3A, GSK3B, NUAK1, PIM2, STK17B, STK35, STK4",13,
CC(=O)c1c(C)c2cnc(Nc3ccc(N4CCN(CC(=O)NCCOCCOCCOCCNc5cccc6c5C(=O)N(C5CCC(=O)NC5=O)C6=O)CC4)cn3)nc2n(C2CCCC2)c1=O (centres unmarked) [YKL-06-102],"CDK4, CDK6, WEE1",3,
C=CCn1c(=O)c2cnc(Nc3ccc(N4CCN(CCCNc5cccc6c5C(=O)N(C5CCC(=O)NC5=O)C6=O)CC4)cc3)nc2n1-c1cccc(C(C)(C)O)n1 (centres unmarked) [ZNL-02-096],"COQ8A, MKNK2, PAK4, PDK1, PDK2, PDK3, PRKCI, TBCK, WEE1",9,
CN1c2ccccc2C(=O)Nc2cnc(Nc3ccc(N4CCN(C(=O)CCOCCNc5cccc6c5C(=O)N(C5CCC(=O)NC5=O)C6=O)CC4)cc3)nc21 (centres unmarked) [ZNL-03-127],"BLK LIMK1, LIMK2 STK17A, TNK2",5,"kinases the bifunctional compound degrades [5]: BLK, LIMK1, LIMK2, STK17A, and TNK2"
Cc1ncsc1-c1ccc([C@H](C)NC(=O)[C@@H]2C[C@@H](O)CN2C(=O)[C@@H](NC(=O)CCOCCOCCOCCN2CCC(C(=O)Nc3ncc(SCc4ncc(C(C)(C)C)o4)s3)CC2)C(C)(C)C)cc1 [ZZ-1-31B],"CDK9, CLK1",2,
